The values that follow come from ChEMBL document CHEMBL5120851, “Discovery of indirubin-3'-aminooxy-acetamide derivatives as potent and selective FLT3/D835Y mutant kinase inhibitors for acute myeloid leukemia” (Eur J Med Chem, 2022).

The test system of assay [1] is MOLM-14. In words: Antiproliferative activity against human MOLM-14 cells assessed as inhibition of cell growth incubated for 72 hrs by EZ-Cytox colorimetric assay. Format: functional.
Assay [2] concerns MOLM-14. Briefly: Antiproliferative activity against human MOLM-14 cells harboring FLT3 ITD/D835Y double mutant assessed as inhibition of cell growth incubated for 72 hrs by EZ-Cytox colorimetric assay. The assay is classed as functional.
Assay [3] relates to MOLM-14. Briefly: Antiproliferative activity against human MOLM-14 cells harboring FLT3 ITD/F691L double mutant assessed as inhibition of cell growth incubated for 72 hrs by EZ-Cytox colorimetric assay. The assay is classed as functional.
The subject of another assay is MV4-11. Briefly: Antiproliferative activity against human MV4-11 cells assessed as inhibition of cell growth incubated for 72 hrs by EZ-Cytox colorimetric assay. The assay is classed as functional.
Assay [4] concerns the target T1, Receptor-type tyrosine-protein kinase FLT3 (Homo sapiens, UniProt P36888).
T1 sequence (P36888 whole entry): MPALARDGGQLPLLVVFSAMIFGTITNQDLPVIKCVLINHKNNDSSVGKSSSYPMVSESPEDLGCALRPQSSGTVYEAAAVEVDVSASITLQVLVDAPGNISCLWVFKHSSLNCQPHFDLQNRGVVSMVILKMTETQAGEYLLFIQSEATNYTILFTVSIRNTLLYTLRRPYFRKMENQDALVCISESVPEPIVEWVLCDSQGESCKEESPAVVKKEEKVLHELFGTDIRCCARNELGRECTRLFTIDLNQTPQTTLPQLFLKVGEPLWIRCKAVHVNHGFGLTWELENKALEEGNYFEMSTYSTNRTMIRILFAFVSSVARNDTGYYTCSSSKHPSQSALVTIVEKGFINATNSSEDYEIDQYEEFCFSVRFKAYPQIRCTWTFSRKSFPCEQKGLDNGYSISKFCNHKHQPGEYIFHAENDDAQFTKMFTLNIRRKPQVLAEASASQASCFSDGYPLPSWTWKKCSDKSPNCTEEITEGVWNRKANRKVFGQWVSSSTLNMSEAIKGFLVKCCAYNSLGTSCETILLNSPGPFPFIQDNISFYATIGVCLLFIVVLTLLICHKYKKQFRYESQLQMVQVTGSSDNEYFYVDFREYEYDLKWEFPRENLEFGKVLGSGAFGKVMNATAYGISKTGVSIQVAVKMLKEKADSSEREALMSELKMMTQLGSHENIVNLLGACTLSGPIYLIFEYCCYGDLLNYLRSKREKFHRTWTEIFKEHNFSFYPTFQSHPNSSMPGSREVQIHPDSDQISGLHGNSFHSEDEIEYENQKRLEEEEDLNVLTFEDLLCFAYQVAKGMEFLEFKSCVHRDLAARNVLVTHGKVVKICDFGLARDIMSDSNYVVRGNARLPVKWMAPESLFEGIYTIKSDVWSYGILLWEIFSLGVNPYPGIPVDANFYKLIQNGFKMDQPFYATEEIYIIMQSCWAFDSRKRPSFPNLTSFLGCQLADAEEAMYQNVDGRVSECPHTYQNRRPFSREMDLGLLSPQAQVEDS
In words: Inhibition of human recombinant His-tagged FLT3 kinase domain (564 to 958 residues) expressed in baculovirus expression system incubated for 30 mins in presence of ATP by HTRF analysis.

Assay [5] concerns the target Receptor-type tyrosine-protein kinase FLT3 (Homo sapiens, UniProt P36888, D835Y). Briefly: Inhibition of human recombinant His-tagged FLT3/D835Y mutant expressed in baculovirus expression system incubated for 30 mins in presence of ATP by HTRF analysis.

Structures are written as SMILES.

`O=C1Nc2ccc(F)cc2/C1=C1/Nc2ccccc2/C1=N\OCCN1CCNCC1`: the GI50 with MOLM-14 [1] was determined as 25.3 nM; in the assay on MOLM-14 [2], 23.1 nM; in the assay with MOLM-14 [3] it was 75.6 nM; in the assay with MV4-11, 3.69 nM.

Take `COc1ccc2c(c1)/C(=C1/Nc3ccccc3/C1=N\OCC(=O)N1CCNCC1)C(=O)N2`: the GI50 with MOLM-14 [1] turned out to be 40.4 nM; with MOLM-14 [2], 36.4 nM; in the assay on MV4-11 it was 8.39 nM. Moreover, the results for the IC50 in assay [4] and in assay [5] were 1.66 nM and 1.61 nM, respectively.

Take `O=C(CO/N=C1/C(=C2/C(=O)Nc3ccc(F)cc32)Nc2ccccc21)NC1CCNCC1`: the GI50 with MOLM-14 [1] came out at 18.6 nM; with MOLM-14 [2], 25.8 nM; with MV4-11, 3.27 nM. In addition, the IC50 in assay [4] worked out at 2.62 nM; in assay [5], 2.16 nM.

In the case of `O=C(CO/N=C1/C(=C2/C(=O)Nc3ccccc32)Nc2ccccc21)N[C@H]1CCNC1`, the GI50 was 5.35 nM in the assay on MOLM-14 [1], 4.88 nM in the assay on MOLM-14 [2], 10.7 nM in the assay on MOLM-14 [3] and 0.68 nM with MV4-11. Besides, the IC50 in assay [4] was 0.64 nM; in assay [5], 0.2 nM.

Take `O=C1Nc2ccc(I)cc2/C1=C1/Nc2ccccc2/C1=N\OCC(=O)N1CCNCC1`: the GI50 worked out at 23.7 nM in the assay with MOLM-14 [1], 20.9 nM with MOLM-14 [2] and 3.72 nM with MV4-11. In addition, the IC50 amounted to 0.8 nM in assay [4] and 0.45 nM in assay [5].

`CN1CC[C@@H](NC(=O)CO/N=C2/C(=C3/C(=O)Nc4ccccc43)Nc3ccccc32)C1`: the GI50 came out at 30.2 nM in the assay on MOLM-14 [1], 28.6 nM in the assay on MOLM-14 [2] and 10.5 nM in the assay on MV4-11. The IC50 in assay [4] was determined as 1.4 nM; in assay [5], 2.19 nM.

Turning to `CN1CC[C@H](NC(=O)CO/N=C2/C(=C3/C(=O)Nc4ccccc43)Nc3ccccc32)C1`, the GI50 was determined as 22.1 nM in the assay with MOLM-14 [1], 21.1 nM with MOLM-14 [2] and 6.12 nM with MV4-11. Moreover, the figures for the IC50 in assay [4] and in assay [5] were 2.01 nM and 1.91 nM, respectively.

For the compound `NC1CCN(C(=O)CO/N=C2/C(=C3/C(=O)Nc4ccc(Cl)cc43)Nc3ccccc32)CC1`, the GI50 with MOLM-14 [1] worked out at 40.3 nM; in the assay on MOLM-14 [2] it was 43.2 nM; in the assay with MV4-11, 10.5 nM. Besides, the IC50 came out at 1.82 nM in assay [4] and 1.34 nM in assay [5].

Regarding `CN1CCC(NC(=O)CO/N=C2/C(=C3/C(=O)Nc4ccccc43)Nc3ccccc32)CC1`, the values for the GI50 in the assay on MOLM-14 [1], in the assay with MOLM-14 [2] and in the assay on MV4-11 were 133 nM, 56.3 nM and 43.6 nM, respectively. Besides, the figures for the IC50 in assay [4] and in assay [5] were 15.8 nM and 53.5 nM, respectively.

On to `CN1CCC(NC(=O)CO/N=C2/C(=C3/C(=O)Nc4ccc(F)cc43)Nc3ccccc32)CC1`, for which the GI50 with MOLM-14 [1] was 75.9 nM; in the assay with MOLM-14 [2], 60.6 nM; with MV4-11, 38.7 nM. Moreover, the IC50 was determined as 7.31 nM in assay [4] and 14.3 nM in assay [5].

On to `NC1CCN(C(=O)CO/N=C2/C(=C3/C(=O)Nc4ccccc43)Nc3ccccc32)CC1`, for which the values for the GI50 in the assay with MOLM-14 [1], in the assay on MOLM-14 [2] and with MV4-11 were 48.6 nM, 38.9 nM and 17.3 nM, respectively. Further, the values for the IC50 in assay [4] and in assay [5] were 2.07 nM and 3.07 nM, respectively.

As for `O=C1Nc2ccc(F)cc2/C1=C1/Nc2ccccc2/C1=N\OCCC(=O)N1CCNCC1`, the GI50 came out at 111 nM with MOLM-14 [1], 112 nM in the assay on MOLM-14 [2] and 29.5 nM in the assay on MV4-11. For the same compound, the IC50 was 1.23 nM in assay [4] and 3.41 nM in assay [5].

Turning to `O=C(CO/N=C1/C(=C2/C(=O)Nc3ccc(Cl)cc32)Nc2ccccc21)NC1CCNCC1`, the GI50 in the assay on MOLM-14 [1] turned out to be 8.56 nM; in the assay with MOLM-14 [2], 35.1 nM; in the assay on MV4-11, 1.08 nM. The concentration for half-maximal inhibition (IC50) turned out to be 1.18 nM in assay [4] and 1.08 nM in assay [5].

Turning to `CN1CC(NC(=O)CO/N=C2/C(=C3/C(=O)Nc4ccccc43)Nc3ccccc32)C1`, the values for the GI50 in the assay on MOLM-14 [1], in the assay with MOLM-14 [2] and with MV4-11 were 17.4 nM, 17.9 nM and 2.61 nM, respectively. Moreover, the IC50 in assay [4] was 0.79 nM; in assay [5] it was 0.75 nM.

For `O=C1Nc2ccccc2/C1=C1/Nc2ccccc2/C1=N\OCCC(=O)N1CCNCC1`, in assay [5], the IC50 worked out at 2.89 nM.

Consider `O=C1Nc2ccc(Cl)cc2/C1=C1/Nc2ccccc2/C1=N\OCC(=O)N1CCNCC1`, for which the GI50 in the assay on MOLM-14 [1] was 7.22 nM; in the assay with MOLM-14 [2], 12.7 nM; in the assay with MV4-11, 0.76 nM. Further, the values for the IC50 in assay [4] and in assay [5] were 0.27 nM and 0.2 nM, respectively.

`O=C1Nc2ccc(F)cc2/C1=C1/Nc2ccccc2/C1=N\OCCS(=O)(=O)N1CCNCC1`: the IC50 in assay [4] and in assay [5] was greater than 50 nM each time. Also, the GI50 with MV4-11 worked out at 842 nM.

`CN1CCC(NC(=O)CO/N=C2/C(=C3/C(=O)Nc4ccc(Cl)cc43)Nc3ccccc32)CC1`: the GI50 with MOLM-14 [1] is 67 nM; in the assay on MOLM-14 [2], 123 nM; with MV4-11, 16.2 nM. Further, the IC50 turned out to be 15 nM in assay [4] and 21.2 nM in assay [5].

Turning to `CN1CCN(C(=O)CO/N=C2/C(=C3/C(=O)Nc4ccc(Cl)cc43)Nc3ccccc32)CC1`, the GI50 was found to be 103 nM in the assay on MOLM-14 [1], 59.1 nM with MOLM-14 [2] and 18.3 nM in the assay on MV4-11. Further, the values for the IC50 in assay [4] and in assay [5] were 1.3 nM and 0.39 nM, respectively.

As for `O=C(CO/N=C1/C(=C2/C(=O)Nc3ccccc32)Nc2ccccc21)NC1CCNCC1`, the results for the GI50 with MOLM-14 [1], in the assay with MOLM-14 [2] and in the assay with MV4-11 were 25.6 nM, 23.8 nM and 7.01 nM, respectively. Moreover, the values for the IC50 in assay [4] and in assay [5] were 2.02 nM and 1.12 nM, respectively.

`O=C(CO/N=C1/C(=C2/C(=O)Nc3ccccc32)Nc2ccccc21)NC1CNC1`: the GI50 with MOLM-14 [1] is 19.6 nM; in the assay with MOLM-14 [2], 22.3 nM; with MV4-11, 4.95 nM. For the same compound, the figures for the IC50 in assay [4] and in assay [5] were 4.95 nM and 3.25 nM, respectively.

For the compound `CN1CCN(C(=O)CO/N=C2/C(=C3/C(=O)Nc4ccccc43)Nc3ccccc32)CC1`, the GI50 in the assay on MOLM-14 [1] came out at 27.8 nM; in the assay with MOLM-14 [2], 23.5 nM; in the assay on MV4-11, 12.2 nM. Further, the IC50 was 1.17 nM in assay [4] and 0.52 nM in assay [5].

With `O=C1Nc2ccc(OC(F)(F)F)cc2/C1=C1/Nc2ccccc2/C1=N\OCC(=O)N1CCNCC1`, the GI50 in the assay on MOLM-14 [1] was 71.9 nM; in the assay on MOLM-14 [2], 87.5 nM; in the assay on MV4-11, 27.4 nM. Also, the IC50 was 3.65 nM in assay [4] and 1.62 nM in assay [5].

For `O=C1Nc2ccc(F)cc2/C1=C1/Nc2ccccc2/C1=N\OCC(=O)N1CCNCC1`, the GI50 in the assay with MOLM-14 [1] worked out at 7.17 nM; with MOLM-14 [2] it was 7.13 nM; in the assay on MV4-11, 1.23 nM. The IC50 was 0.29 nM in assay [4] and 0.18 nM in assay [5].

Consider `O=C1Nc2ccc(F)cc2/C1=C1/Nc2ccccc2/C1=N\OCS(=O)(=O)N1CCNCC1`, for which the GI50 in the assay on MOLM-14 [1] is 46.2 nM; in the assay on MOLM-14 [2], 30.8 nM; with MV4-11, 9.58 nM. Further, the IC50 in assay [4] was 3.29 nM; in assay [5], 2.71 nM.

Regarding `NC1CCN(C(=O)CO/N=C2/C(=C3/C(=O)Nc4ccc(F)cc43)Nc3ccccc32)CC1`, the results for the GI50 with MOLM-14 [1], with MOLM-14 [2] and with MV4-11 were 36.7 nM, 28.1 nM and 9.76 nM, respectively. Further, the results for the IC50 in assay [4] and in assay [5] were 2.54 nM and 3.45 nM, respectively.

On to `CN1CCN(C(=O)CO/N=C2/C(=C3/C(=O)Nc4ccc(F)cc43)Nc3ccccc32)CC1`, for which the values for the GI50 with MOLM-14 [1], with MOLM-14 [2] and in the assay with MV4-11 were 28 nM, 26.1 nM and 6.49 nM, respectively. The IC50 in assay [4] is 0.93 nM; in assay [5], 0.35 nM.

Consider `O=C1Nc2ccccc2/C1=C1/Nc2ccccc2/C1=N\OCS(=O)(=O)N1CCNCC1`, for which, in assay [5], the IC50 came out at 3.78 nM.

With `O=C1Nc2ccc(Br)cc2/C1=C1/Nc2ccccc2/C1=N\OCC(=O)N1CCNCC1`, the GI50 worked out at 13.9 nM in the assay with MOLM-14 [1], 16.1 nM with MOLM-14 [2] and 1.27 nM in the assay on MV4-11. Besides, the IC50 in assay [4] came to 0.67 nM; in assay [5] it was 0.22 nM.
